# Experiment: HIV MT-4 Serum Shift Antiviral Reporter Assay: To quantify the amount of protein binding to human serum, compounds were serially diluted (1:3) in DMSO and acoustically transferred onto 384-well assay plates via a Labcyte ECHO robot. Each plate contained up to 8 test compounds, including negative and positive controls, (DMSO, 5 μM AZT respectively). Assay plates were prepared in duplicate, and tested in either CCM (cell culture media) or HS/CCM (human serum/cell culture media). MT-4 cells were first pre-infected with pLai RLuc reporter virus for 2 h at 37° C., then further diluted in either CCM (RPMI media, 10% FBS, 1% P/S) or HS/CCM (RPMI media, 10% FBS, 50% HS, 1% P/S), and subsequently added to each plate using a Biotek Micro Flow dispenser. After a 72-h incubation in a humidified and temperature controlled incubator (37° C.), Renilla Glo (Promega) was added to all assay plates and chemiluminescence read using an Envision plate-reader. EC50 values were defined as the compound concentration that causes a 50% decrease in luminescence signal, and were calculated using a sigmoidal dose-response model to generate curve fits. To determine the amount of protein binding, EC50 fold shifts (or EC50 shifts) were calculated by dividing EC50 (HS/CCM)/EC50 (CCM).
Structure (SMILES),EC50 [nM],"EC50 (MT4, 2 h) [nM]"
C[C@@H]1C=C[C@H](CF)N2CN1n1cc(C(=O)NCc3ccc(F)cc3F)c(=O)c(O)c1C2=O,1.9,–
CC1=C[C@H](C)N2CN([C@@H]1C)n1cc(C(=O)NCc3ccc(F)cc3F)c(=O)c(O)c1C2=O,–,1.4
C[C@H]1C=C[C@H](C)N2CN1C(=O)c1c(O)c(=O)c(C(=O)NCc3c(F)cc(F)cc3F)cn12,1.4,–
C[C@H]1C=CC2(CCC2)N2CN1C(=O)c1c(O)c(=O)c(C(=O)NCc3c(F)cc(F)cc3F)cn12,3,–
C[C@@H]1CC[C@H](C)N2CN1n1cc(C(=O)NCc3ccc(F)cc3F)c(=O)c(O)c1C2=O,1.5,–
CO[C@@H]1C=C[C@H](C)N2CN1n1cc(C(=O)NCc3c(F)cc(F)cc3F)c(=O)c(O)c1C2=O,1.8,–
C[C@@H]1C[C@H](O)[C@H](O)CN2CN1n1cc(C(=O)NCc3ccc(F)cc3F)c(=O)c(O)c1C2=O,–,1.5

# Source: ChEMBL document CHEMBL5729653, “Substituted pyridotriazine compounds and uses thereof” (2023)
